Measured values from patent publication US20170165317A1, “METHOD FOR MITIGATING OR ALLEVIATING SYNAPTIC AND COGNITIVE DEFICITS” (Trustees of Dartmouth College, priority 2013, published 2017).

What was measured:
[1] = test system: APP/PS1 mice; assay: Contextual fear conditioning after i.c.v. infusion; format: in vivo, mouse; settings: VO-OHpic infusion
Procedure: (§1) APP/PS1 and wild-type mice were anesthetized with isofluorane, and i.c.v. delivery cannulas (brain alzet kit III) were implanted with a stereotaxic frame (KOPF Instruments) at the following coordinates according to the bregma: AP, −0.5 mm; ML, 1 mm; and DV, −2.2 mm. Osmotic minipumps (Alzet) were filled with artificial cerebrospinal fluid (aCSF) with or without PTEN inhibitor VO-OHpic (2.5 μM) and equilibrated in 0.9% NaCl at 37° C. for 48 hours. They were attached to the i.c.v. cannula tubing and subcutaneously implanted at the back. After 21 days, behavioral testing was started as described herein. […]
(§2) Fear conditioning. […] The animals' behavior was scored by an observer blind to the treatment condition. Using a time-sampling procedure every 2 seconds, each mouse was scored blindly as either freezing or active at the instant the sample was taken. […]
(§3) It was posited that if early Aβ-induced cognitive impairment results from a general synaptic bias toward LTD events (Selkoe (2002) Science 298:789-791), dampening this form of synaptic plasticity might prevent cognitive decay. Therefore, it was determined whether in vivo inhibition of PTEN, a lipid phosphatase that is involved in LTD (Jurado, et al. (2010) EMBO J. 29:2827-2840), would rescue cognitive deficits in APP/PS1 mice. […]

[2] = test system: APP/PS1 mice; assay: Auditory-cued fear conditioning (hippocampal-independent) after i.c.v. infusion; format: in vivo, mouse; settings: wild-type vs APP/PS1 mice, with or without VO-OHpic
Procedure: as §1, §2, §3

[3] = test system: hippocampal CA3 and CA1 cells from acute slices; assay: fEPSP input-output curve (basal synaptic transmission) in acute hippocampal slices exposed to protofibrillar Aβ42; format: cell-based, mice
Procedure: Mice were anesthetized with sodium pentothal (20 mg/kg ip) and decapitated. The brain was rapidly removed to ice-cold, oxygenated, dissection solution. Coronal slices (300 μm) were made with a vibratome (LEICA VT1200S) and slices were moved to a recovery chamber containing aCSF at room temperature for at least 1.5 hour before recording.
A concentric bipolar platinum-iridium stimulation electrode and a low-resistance glass recording microelectrode filled with aCSF (3-4 MΩ resistance) were placed in CA1 stratum radiatum to record the extracellular field excitatory postsynaptic potentials (fEPSPs). For each slice, an input-output curve was recorded to compare basal synaptic transmission at different conditions. This curve was also used to set the baseline fEPSP at ≈30% (for LTP experiments) or ≈50% (for LTD experiments) of maximal slope. Baseline stimulation was delivered every 15 seconds (0.01 ms duration pulses) for at least 20 minutes before beginning the experiment to ensure stability of the response. LTP was induced by using θ-burst stimulation (4 pulses at 100 Hz, with the bursts repeated at 5 Hz and each tetanus including three 10-burst trains separated by 15 seconds). LTD was induced using 900 pulses at 1 Hz. Responses were recorded for 1 hour after induction of LTP or LTD.
Dissection solution (employed for slicing) composition: 10 mM D-glucose, 4 mM KCl, 26 mM NaHCO3, 233.7 mM sucrose, 5 mM MgCl2, 1:1000 Phenol Red. Artificial CSF (employed for recovery and recording) composition: 119 mM NaCl, 2.5 mM KCl, 1 mM NaH2PO4, 11 mM glucose, 1.2 mM MgCl2, 2.5 mM CaCl2. Osmolarity was adjusted to […].
For the first approach, protofibrillar Aβ was prepared by promoting aggregation under high-salt conditions (258 μM Aβ42, room temperature incubation (Jan, et al. (2010) Nat. Protoc. 5:1186-1209). The kinetics of Aβ42 aggregation were followed by thioflavin T fluorescence and SDS-PAGE western blot analysis with the N-terminal anti-Aβ antibody 6E10. Also, the heterogeneous nature of these Aβ42 assemblies was evidenced by electron microscopy. Synaptic function was assessed by electrophysiological recordings of field excitatory postsynaptic potential (fEPSPs) between hippocampal CA3 and CA1 cells from acute slices prepared from 5-month-old mice. The results indicated a ≈60% decrease in the magnitude of synaptic transmission (input-output curve) when slices were incubated for 2 hours in aCSF containing pathogenic protofibrillar Aβ42 species (1 μM). This decrease in the basal synaptic transmission was prevented when Aβ was added to slices that were preincubated with the PTEN inhibitor (50 nM VO-OHpic) for 1 hour (VO-OHpic and Aβ were also present in the perfusion solution during electrophysiological recordings). VO-OHpic alone had no effect on basal synaptic transmission. […] The potency and specificity of this inhibitor have been documented previously (Rosivatz, et al. (2006) ACS Chem. Biol. 1:780-790).
The effect of these peptides on Aβ-treated neurons was subsequently tested.

O=C(O)c1ncccc1O.O=C(O)c1ncccc1O.[O]=[V][O-] [VO-OHpic]
contextual fear conditioning performance (percentage freezing to the context) ([1]; APP/PS1 mice, P=0.002): significantly improved their performance
contextual fear conditioning performance (percentage freezing to the context) ([1]; wild-type mice): without altering
auditory-cued fear conditioning (percentage freezing to the tone) [2]: did not show significant difference
Aβ42-induced decrease in basal synaptic transmission ([3]; 50 nM VO-OHpic preincubated 1 hour, then 1 μM protofibrillar Aβ42 for 2 hours): prevented
basal synaptic transmission, inhibitor alone ([3]; VO-OHpic alone, no Aβ): no effect
